Measurements as given in PubChem BioAssay AID1259411 (Chemical Carcinogenesis Research Information System (CCRIS), 2018).
The source made the active and inactive calls. No rule for the calls is given here.

System: rodent carcinogenicity bioassays, tumor incidence
Assay: CCRIS carcinogenicity studies
In short: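 NCI-built, expert-reviewed records of carcinogenicity and related test outcomes (mutagenicity, tumor promotion/inhibition) compiled from published and report sources, historical span 1985-2011, not updated.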

Compound: [Cl][Cd][Cl]
- carcinogen call (Species: HAMSTER, Strain/Sex: SYRIAN/FEMALE, Route: INHALATION, Dose: 0, 30 UG/M3 19 HR/D 5 D/WK FOR 65 WK FOR A TOTAL CADMIUM DOSE OF 0, 180 MG/M3 (STUDY DURATION: 76 WK), Dose: 0, 30 UG/M3 19 HR/D 5 D/WK FOR 65 WK FOR A TOTAL CADMIUM DOSE OF 0, 180 MG/M3 (STUDY DURATION: 76 WK)): inactive; negative
- carcinogen call (Species: HAMSTER, Strain/Sex: SYRIAN/MALE, Route: INHALATION, Dose: 0, 30 UG/M3 19 HR/D 5 D/WK FOR 65 WK FOR A TOTAL CADMIUM DOSE OF 0, 180 MG/M3 (STUDY DURATION: 113 WK), Dose: 0, 30 UG/M3 19 HR/D 5 D/WK FOR 65 WK FOR A TOTAL CADMIUM DOSE OF 0, 180 MG/M3 (STUDY DURATION: 113 WK)): inactive; negative
- carcinogen call (Species: MOUSE, Strain/Sex: BALB/MALE, Route: SUBCUTANEOUS, Dose: 0, 20 UMOL/KG 1/WK FOR 16 WK (STUDY DURATION: 104 WK), Tumor Site: Type of Lesion: HEMATOPOIETIC SYSTEM: TUMOR): active; positive
- carcinogen call (Species: MOUSE, Strain/Sex: BALB/MALE, Route: SUBCUTANEOUS, Dose: 0, 20 UMOL/KG ONCE (STUDY DURATION: 104 WK)): inactive; negative
- carcinogen call (Species: MOUSE, Strain/Sex: CD-1/MALE, Route: SUBCUTANEOUS, Dose: 0, 0.03 MMOL/KG BW (5.5 MG/KG BW), SINGLE DOSE, Tumor Site: Type of Lesion: TESTES: INTERSTITIAL CELL TUMOR): active; positive
- carcinogen call (Species: MOUSE, Strain/Sex: CD-1/MALE, Route: SUBCUTANEOUS, Dose: 5.5 MG/KG ONCE, Tumor Site: Type of Lesion: TESTES: INTERSTITIAL CELL TUMOR): active; positive
- carcinogen call (Species: MOUSE, Strain/Sex: DBA/MALE, Route: SUBCUTANEOUS, Dose: 0, 40 UMOL/KG 1/WK FOR 16 WK (STUDY DURATION: 104 WK), Tumor Site: Type of Lesion: HEMATOPOIETIC SYSTEM: LYMPHOMA): active; positive
- carcinogen call (Species: MOUSE, Strain/Sex: DBA/MALE, Route: SUBCUTANEOUS, Dose: 0, 40 UMOL/KG ONCE (STUDY DURATION: 104 WK)): inactive; negative
- carcinogen call (Species: MOUSE, Strain/Sex: NFS/MALE, Route: SUBCUTANEOUS, Dose: 0, 40 UMOL/KG 1/WK FOR 16 WK (STUDY DURATION: 104 WK), Tumor Site: Type of Lesion: INJECTION SITE: TUMOR, LIVER: HEPATOCELLULAR ADENOMA OR CARCINOMA): active; positive
- carcinogen call (Species: MOUSE, Strain/Sex: NFS/MALE, Route: SUBCUTANEOUS, Dose: 0, 40 UMOL/KG ONCE (STUDY DURATION: 104 WK), Tumor Site: Type of Lesion: LUNG: ADENOMA OR CARCINOMA): active; positive
- carcinogen call (Species: MOUSE, Strain/Sex: SWISS/MALE, Route: SUBCUTANEOUS, Dose: 0, 40 UMOL/KG 1/WK FOR 16 WK BEGINNING AT 8 WK OF AGE (STUDY DURATION: 104 WK)): inactive; negative
- carcinogen call (Species: MOUSE, Strain/Sex: SWISS/MALE, Route: SUBCUTANEOUS, Dose: 0, 40 UMOL/KG ONCE AT 8 WK OF AGE (STUDY DURATION: 104 WK), Tumor Site: Type of Lesion: ADRENAL GLAND: ADENOMA): active; positive
- carcinogen call (Species: RAT, Strain/Sex: CS/MALE, Route: INTRAPROSTATIC, Dose: 0, 0.04 ML OF 0.1 MOLAR SOLUTION (0.73 MG) ONCE (STUDY DURATION: 250 D), Tumor Site: Type of Lesion: PROSTATE: CARCINOMA): active; positive
- carcinogen call (Species: RAT, Strain/Sex: F344/MALE, Route: SUBCUTANEOUS, Dose: 0, 3 UMOL/KG BW ONCE, THEN 30 UMOL/KG BW 1X/WK FOR 17 WK BEGINNING 1 WK POST INITIAL DOSE (STUDY DURATION: 18 WK), Tumor Site: Type of Lesion: INJECTION SITE SARCOMA): active; positive
- carcinogen call (Species: RAT, Strain/Sex: F344/MALE, Route: SUBCUTANEOUS, Dose: 0, 10, 20, 30 UMOL/KG BW 1X/WK FOR 18 WK (STUDY DURATION: 18 WK), Dose: 0, 10, 20, 30 UMOL/KG BW 1X/WK FOR 18 WK (STUDY DURATION: 18 WK), Tumor Site: Type of Lesion: INJECTION SITE SARCOMA): active; positive
- carcinogen call (Species: RAT, Strain/Sex: F344/MALE, Route: SUBCUTANEOUS, Dose: 0, 30 UMOL/KG IN DORSAL THORACIC MIDLINE AREA ONCE (STUDY DURATION: 90 WK), Tumor Site: Type of Lesion: INJECTION SITE: SARCOMA, FIBROSARCOMA): active; positive
- carcinogen call (Species: RAT, Strain/Sex: WISTAR/FEMALE, Route: INHALATION, Dose: 0, 30 UG/M3 22 HR/D 7 D/WK FOR 18 MO (STUDY DURATION: 31 MO), Tumor Site: Type of Lesion: LUNG: ALVEOLAR/BRONCHIOLAR ADENOMA, ADENOCARCINOMA): active; positive
- carcinogen call (Species: RAT, Strain/Sex: WISTAR/FEMALE, Route: INHALATION, Dose: 0, 30 UG/M3 22 HR/D 7 D/WK FOR 18 MO (STUDY DURATION: 31 MO), Tumor Site: Type of Lesion: LUNG: TUMOR): active; positive
- carcinogen call (Species: RAT, Strain/Sex: WISTAR/FEMALE, Route: INHALATION, Dose: 0, 30 UG/M3 AEROSOL 22 HR/D 7 D/WK FOR 18 MO (STUDY DURATION: 31 MO), Tumor Site: Type of Lesion: LUNG: ALVEOLAR/BRONCHIOLAR ADENOMA, SQUAMOUS CELL CARCINOMA): active; positive
- carcinogen call (Species: RAT, Strain/Sex: WISTAR/FEMALE, Route: INHALATION, Dose: 0, 90 UG/M3 22 HR/D 7 D/WK FOR 6 MO (STUDY DURATION: 29 MO), Tumor Site: Type of Lesion: LUNG: ADENOCARCINOMA, SQUAMOUS CELL CARCINOMA): active; positive
- carcinogen call (Species: RAT, Strain/Sex: WISTAR/FEMALE, Route: INHALATION, Dose: 0, 90 UG/M3 22 HR/D 7 D/WK FOR 6 MO (STUDY DURATION: 29 MO), Tumor Site: Type of Lesion: LUNG: TUMOR): active; positive
- carcinogen call (Species: RAT, Strain/Sex: WISTAR/FEMALE, Route: INHALATION, Dose: 0, 90 UG/M3 AEROSOL 22 HR/D 7 D/WK FOR 6 MO (STUDY DURATION: 29 MO), Tumor Site: Type of Lesion: LUNG: ADENOCARCINOMA, SQUAMOUS CELL CARCINOMA): active; positive
- carcinogen call (Species: RAT, Strain/Sex: WISTAR/MALE, Route: INHALATION, Dose: 0, 12.5, 25, 50 UG/M3 AEROSOL 23 HR/D 7 D/WK FOR 18 MO (STUDY DURATION: 31 MO), Dose: 0, 12.5, 25, 50 UG/M3 AEROSOL 23 HR/D 7 D/WK FOR 18 MO (STUDY DURATION: 31 MO), Tumor Site: Type of Lesion: LUNG: ADENOMA, ADENOCARCINOMA, EPIDERMOID CARCINOMA): active; positive
- carcinogen call (Species: RAT, Strain/Sex: WISTAR/MALE, Route: INHALATION, Dose: 0, 30 MG/M3 AEROSOL 22 HR/D 7 D/WK FOR 18 MO (STUDY DURATION: 30 MO), Tumor Site: Type of Lesion: LUNG: ALVEOLAR/BRONCHIOLAR ADENOMA, ADENOCARCINOMA): active; positive
- carcinogen call (Species: RAT, Strain/Sex: WISTAR/MALE, Route: INHALATION, Dose: 0, 30 UG/M3 22 HR/D 7 D/WK FOR 18 MO (STUDY DURATION: 30 MO), Tumor Site: Type of Lesion: LUNG: ALVEOLAR/BRONCHIOLAR ADENOMA, ADENOCARCINOMA): active; positive
- carcinogen call (Species: RAT, Strain/Sex: WISTAR/MALE, Route: INHALATION, Dose: 0, 30 UG/M3 22 HR/D 7 D/WK FOR 18 MO (STUDY DURATION: 30 MO), Tumor Site: Type of Lesion: LUNG: TUMOR): active; positive
- carcinogen call (Species: RAT, Strain/Sex: WISTAR/MALE, Route: INHALATION, Dose: 0, 90 UG/M3 22 HR/D 7 D/WK FOR 6 MO (STUDY DURATION: 30 MO), Tumor Site: Type of Lesion: LUNG: ALVEOLAR/BRONCHIOLAR ADENOMA, ADENOCARCINOMA, SQUAMOUS CELL CARCINOMA): active; positive
- carcinogen call (Species: RAT, Strain/Sex: WISTAR/MALE, Route: INHALATION, Dose: 0, 90 UG/M3 22 HR/D 7 D/WK FOR 6 MO (STUDY DURATION: 30 MO), Tumor Site: Type of Lesion: LUNG: TUMOR): active; positive
- carcinogen call (Species: RAT, Strain/Sex: WISTAR/MALE, Route: INHALATION, Dose: 0, 90 UG/M3 AEROSOL 22 HR/D 7 D/WK FOR 6 MO (STUDY DURATION: 30 MO), Tumor Site: Type of Lesion: LUNG: ALVEOLAR/BRONCHIOLAR, ADENOCARCINOMA, SQUAMOUS CELL CARCINOMA): active; positive
- carcinogen call (Species: RAT, Strain/Sex: WISTAR/MALE, Route: SUBCUTANEOUS, Dose: 0, 0.03 MMOL/KG BW (5.5 MG/KG BW), SINGLE DOSE, Tumor Site: Type of Lesion: TESTES: INTERSTITIAL CELL TUMOR): active; positive
- carcinogen call (Species: RAT, Strain/Sex: WISTAR/MALE, Route: SUBCUTANEOUS, Dose: 0, 3 UMOL/KG BW ONCE, THEN 30 UMOL/KG BW 1X/WK FOR 17 WK BEGINNING 1 WK POST INITIAL DOSE (STUDY DURATION: 18 WK), Tumor Site: Type of Lesion: INJECTION SITE SARCOMA): active; positive
- carcinogen call (Species: RAT, Strain/Sex: WISTAR/MALE, Route: SUBCUTANEOUS, Dose: 0, 10, 20, 30 UMOL/KG BW 1X/WK FOR 18 WK (STUDY DURATION: 18 WK), Dose: 0, 10, 20, 30 UMOL/KG BW 1X/WK FOR 18 WK (STUDY DURATION: 18 WK), Tumor Site: Type of Lesion: INJECTION SITE SARCOMA): active; positive
- carcinogen call (Species: RAT, Strain/Sex: WISTAR/MALE, Route: SUBCUTANEOUS, Dose: 5.5 MG/KG ONCE, Tumor Site: Type of Lesion: INJECTION SITE: SARCOMA, TESTES: INTERSTITIAL CELL TUMOR): active; positive
- carcinogen call (Species: RAT, Strain/Sex: WISTAR, Route: SUBCUTANEOUS, Dose: 0, 0.03 MMOL/KG BW (5.5 MG/KG BW), SINGLE DOSE, OBSERVED 2 YR, Tumor Site: Type of Lesion: INJECTION SITE: SPINDLE CELL SARCOMA, TESTES: INTERSTITIAL CELL TUMOR): active; positive
- carcinogen call (Species: RAT, Strain/Sex: WISTAR, Route: SUBCUTANEOUS, Dose: 0, 0.03 MMOL/KG BW (5.5 MG/KG BW), SINGLE DOSE, Tumor Site: Type of Lesion: INJECTION SITE: SARCOMA, TESTES: INTERSTITIAL CELL TUMOR): active; positive
- carcinogen call (Species: RAT, Strain/Sex: WISTAR, Route: SUBCUTANEOUS, Dose: 0.02-0.03 MMOL/KG BW (3.7-5.5 MG/KG BW), SINGLE DOSE, Tumor Site: Type of Lesion: INJECTION SITE: FIBROSARCOMA, TESTES: INTERSTITIAL CELL TUMOR): active; positive
